Test results as given in patent US8709457B2, “Hydroxylated amide skin moisturizer” (L'Oreal, priority 2006, dated 2014).

The compounds below were run on Stratum Corneum (assay: Dermometer, mechanical measurement of the plasticizing effect (elastic modulus of Stratum Corneum)). Details: 3% aqueous solution, 30° C., 75% RH.
Experimental: A test was performed to evaluate the moisturizing potential of the compounds of the invention which are formulated in a 3% aqueous solution.
Dermometer, mechanical measurement of the plasticizing effect (described by J de Rigal, J-L. Leveque, International Journal of Cosmetic Science, 1982, 247-260).
The tests carried out were performed under the standard conditions on stratum corneum in a chamber at controlled temperature and humidity (T=30° C. and RH=75%). The elastic modulus measurements are performed on each control test specimen and then 2 hours and 20 hours after application of the treatment. The relative variation in the modulus makes it possible to assess the plasticizing effect of the active agent on the Stratum Corneum.
The mean and the standard deviation were calculated on 10 stratum corneum samples.

| SMILES | plasticizing effect on the stratum corneum (in words) | ranking of plasticizing effect among tested compounds |
| --- | --- | --- |
| NC(=O)[C@H](O)[C@H](O)CO [Compound 3, (2R,3R)-2,3,4-Trihydroxybutanamide] | significant plasticizing effect |  |
| C[Si](C)(C)CNC(=O)[C@H](O)[C@H](O)CO [Compound 5, (2R,3R)-2,3,4-trihydroxy-N-[(trimethylsilyl)methyl]butanamide] | significant plasticizing effect |  |
| O=C(NCCO)[C@H](O)[C@H](O)CO [Compound 9, (2R,3R)-2,3,4-trihydroxy-N-(2-hydroxyethyl)butanamide] | significant plasticizing effect |  |
| O=C([C@H](O)[C@H](O)CO)N(CCO)CCO [Compound 14, (2R,3R)-2,3,4-trihydroxy-N,N-bis(2-hydroxyethyl)butanamide] | significant plasticizing effect | most effective |
| CCN(CCO)C(=O)[C@H](O)[C@H](O)CO [Compound 15, (2R,3R)—N-ethyl-2,3,4-trihydroxy-N-(2-hydroxyethyl)butanamide] | significant plasticizing effect | most effective |

Same assay, conditions: 30° C. and 75% relative humidity, 2 h after application; products tested at 3% in water (controls in water); mean ± standard deviation, 10 samples

| SMILES | Relative variation in the elastic modulus of Stratum Corneum, 2H |
| --- | --- |
| NC(=O)[C@H](O)[C@H](O)CO [Compound 3, (2R,3R)-2,3,4-Trihydroxybutanamide] | −32 +/− 18% |
| C[Si](C)(C)CNC(=O)[C@H](O)[C@H](O)CO [Compound 5, (2R,3R)-2,3,4-trihydroxy-N-[(trimethylsilyl)methyl]butanamide] | −34 +/− 15% |
| O=C(NCCO)[C@H](O)[C@H](O)CO [Compound 9, (2R,3R)-2,3,4-trihydroxy-N-(2-hydroxyethyl)butanamide] | −26 +/− 14% |
| O=C([C@H](O)[C@H](O)CO)N(CCO)CCO [Compound 14, (2R,3R)-2,3,4-trihydroxy-N,N-bis(2-hydroxyethyl)butanamide] | −23 +/− 18% |
| CCN(CCO)C(=O)[C@H](O)[C@H](O)CO [Compound 15, (2R,3R)—N-ethyl-2,3,4-trihydroxy-N-(2-hydroxyethyl)butanamide] | -28 +/− 10% |
| OCC(O)CO [Glycerol, reference compound] | −41 ± 12% |
| NC(N)=O [Urea, reference compound] | −72 ± 9% |

Same assay, conditions: 30° C. and 75% relative humidity, 20 h after application; products tested at 3% in water (controls in water); mean ± standard deviation, 10 samples

| SMILES | Relative variation in the elastic modulus of Stratum Corneum, 20H |
| --- | --- |
| NC(=O)[C@H](O)[C@H](O)CO [Compound 3, (2R,3R)-2,3,4-Trihydroxybutanamide] | −34 +/− 15% |
| C[Si](C)(C)CNC(=O)[C@H](O)[C@H](O)CO [Compound 5, (2R,3R)-2,3,4-trihydroxy-N-[(trimethylsilyl)methyl]butanamide] | −31 +/− 18% |
| O=C(NCCO)[C@H](O)[C@H](O)CO [Compound 9, (2R,3R)-2,3,4-trihydroxy-N-(2-hydroxyethyl)butanamide] | −27 +/− 16% |
| O=C([C@H](O)[C@H](O)CO)N(CCO)CCO [Compound 14, (2R,3R)-2,3,4-trihydroxy-N,N-bis(2-hydroxyethyl)butanamide] | −49 +/− 14% |
| CCN(CCO)C(=O)[C@H](O)[C@H](O)CO [Compound 15, (2R,3R)—N-ethyl-2,3,4-trihydroxy-N-(2-hydroxyethyl)butanamide] | −48 +/− 12% |
| OCC(O)CO [Glycerol, reference compound] | −51 ± 15% |
| NC(N)=O [Urea, reference compound] | −83 ± 7% |
